The values that follow are results of earlier work, collected in PubChem BioAssay AID1259409 (Chemical Carcinogenesis Research Information System (CCRIS), 2018).

The series deals with rodent chemically induced tumor inhibition, incidence and multiplicity. In words: CCRIS tumor inhibitor studies. The note with it: Route [Inhibitor]: ORAL.

For `O=[Se](O)O`, the “tumour outcome (control, treated, inhibition, significance)” value reads like this: (Carcinogen: N-METHYL-N-NITROSOUREA, 684-93-5, Dose [Inhibitor]: 5 MG IN DIET DAILY STARTING AT AGE 5 WK 2 WK PRIOR TO FIRST CARCINOGEN TREATMENT AND CONTINUING FOR DURATION OF STUDY (S, Species: HAMSTER, Strain/Sex: SYRIAN/MALE, Target Tissue: Type of Lesion: TRACHEA: NEOPLASM, Dose [Carcinogen]: 0.5% SOLUTION (PH 5) 1/WK FOR 12 WK, Promoter: NONE USED) 11/34 (32%), 11/31 (35%), -9%, not significant; (Carcinogen: N-METHYL-N-NITROSOUREA, 684-93-5, Dose [Inhibitor]: 5 MG/KG IN DIET DAILY STARTING 7 D AFTER CARCINOGEN TREATMENT AND CONTINUING FOR DURATION OF STUDY (STUDY DURATION: 90 D, Species: RAT, Strain/Sex: SPRAGUE-DAWLEY/FEMALE, Target Tissue: Type of Lesion: MAMMARY GLAND: ADENOCARCINOMA, Dose [Carcinogen]: 50 MG/KG BW IN 0.9% SALINE ONCE AT 50 D OF AGE, Promoter: NONE) 95%, 85%, 11%, not calculated; (Carcinogen: N-NITROSOBIS(2-OXOPROPYL)AMINE, 60599-38-4, Dose [Inhibitor]: 0, 4 PPM IN DRINKING WATER BEGINNING POST CARCINOGEN TREATMENT AND CONTINUING FOR 37 WK (STUDY DURATION: 40 WK), Species: HAMSTER, Strain/Sex: SYRIAN/FEMALE, Target Tissue: Type of Lesion: PANCREAS: ADENOCARCINOMA, Dose [Carcinogen]: 10 MG/KG 1/WK FOR 3 WK, Promoter: NONE USED) 11/28 (39%), 9/30 (30%), 23%, not calculated; (Carcinogen: NITROSOMETHYL-3-CARBOXYPROPYLAMINE, 61445-55-4, Dose [Inhibitor]: 0, 0.35 PPM IN DIET BEGINNING 1 WK PRIOR TO CARCINOGEN DOSE AND CONTINUED FOR DURATION OF STUDY (STUDY DURATION: LIFETIM, Species: RAT, Strain/Sex: F344/FEMALE, Target Tissue: Type of Lesion: BLADDER: TUMORS, Dose [Carcinogen]: 20 ML OF A 600 MG/L SOLUTION IN DRINKING WATER 5 D/WK FOR 28 WK, Promoter: NONE USED) 18/20 (90%), 18/20 (90%), 0%, not significant; (Carcinogen: NITROSOMETHYL-3-CARBOXYPROPYLAMINE, 61445-55-4, Dose [Inhibitor]: 0, 0.7 PPM IN DIET BEGINNING 1 WK PRIOR TO CARCINOGEN DOSE AND CONTINUED FOR DURATION OF STUDY (STUDY DURATION: LIFETIME, Species: RAT, Strain/Sex: F344/FEMALE, Target Tissue: Type of Lesion: BLADDER: TUMORS, Dose [Carcinogen]: 20 ML OF A 600 MG/L SOLUTION IN DRINKING WATER 5 D/WK FOR 28 WK, Promoter: NONE USED) 18/20 (90%), 20/20 (100%), -11%, not significant; (Carcinogen: NITROSOMETHYL-3-CARBOXYPROPYLAMINE, 61445-55-4, Dose [Inhibitor]: 0, 1.4 PPM IN DIET BEGINNING 1 WK PRIOR TO CARCINOGEN DOSE AND CONTINUED FOR DURATION OF STUDY (STUDY DURATION: LIFETIME, Species: RAT, Strain/Sex: F344/FEMALE, Target Tissue: Type of Lesion: BLADDER: TUMORS, Dose [Carcinogen]: 20 ML OF A 600 MG/L SOLUTION IN DRINKING WATER 5 D/WK FOR 28 WK, Promoter: NONE USED) 18/20 (90%), 20/20 (100%), -11%, not significant. For the same molecule, the “tumour outcome (control, treated, inhibition, significance)” value reads like this: (Carcinogen: NITROSOMETHYL-3-CARBOXYPROPYLAMINE, 61445-55-4, Dose [Inhibitor]: 0, 2.1 PPM IN DIET BEGINNING 1 WK PRIOR TO CARCINOGEN DOSE AND CONTINUED FOR DURATION OF STUDY (STUDY DURATION: LIFETIME, Species: RAT, Strain/Sex: F344/FEMALE, Target Tissue: Type of Lesion: BLADDER: TUMORS, Dose [Carcinogen]: 20 ML OF A 600 MG/L SOLUTION IN DRINKING WATER 5 D/WK FOR 28 WK, Promoter: NONE USED) 18/20 (90%), 17/20 (85%), 6%, not significant; (Carcinogen: NITROSOMETHYLCYCLOHEXYLAMINE, 5432-28-0, Dose [Inhibitor]: 0, 0.35 PPM IN DIET BEGINNING 1 WK PRIOR TO CARCINOGEN DOSE AND CONTINUED FOR DURATION OF STUDY (STUDY DURATION: LIFETIM, Species: RAT, Strain/Sex: F344/FEMALE, Target Tissue: Type of Lesion: ESOPHAGUS: TUMORS, Dose [Carcinogen]: 20 ML OF A 5 MG/L SOLUTION IN DRINKING WATER 5 D/WK FOR 28 WK, Promoter: NONE USED) 17/20 (85%), 17/20 (85%), 0%, not significant; (Carcinogen: NITROSOMETHYLCYCLOHEXYLAMINE, 5432-28-0, Dose [Inhibitor]: 0, 0.7 PPM IN DIET BEGINNING 1 WK PRIOR TO CARCINOGEN DOSE AND CONTINUED FOR DURATION OF STUDY (STUDY DURATION: LIFETIME, Species: RAT, Strain/Sex: F344/FEMALE, Target Tissue: Type of Lesion: ESOPHAGUS: TUMORS, Dose [Carcinogen]: 20 ML OF A 5 MG/L SOLUTION IN DRINKING WATER 5 D/WK FOR 28 WK, Promoter: NONE USED) 17/20 (85%), 17/20 (85%), 0%; (Carcinogen: NITROSOMETHYLCYCLOHEXYLAMINE, 5432-28-0, Dose [Inhibitor]: 0, 1.4 PPM IN DIET BEGINNING 1 WK PRIOR TO CARCINOGEN DOSE AND CONTINUED FOR DURATION OF STUDY (STUDY DURATION: LIFETIME, Species: RAT, Strain/Sex: F344/FEMALE, Target Tissue: Type of Lesion: ESOPHAGUS: TUMORS, Dose [Carcinogen]: 20 ML OF A 5 MG/L SOLUTION IN DRINKING WATER 5 D/WK FOR 28 WK, Promoter: NONE USED) 17/20 (85%), 16/20 (80%), 6%, not significant; (Carcinogen: NITROSOMETHYLCYCLOHEXYLAMINE, 5432-28-0, Dose [Inhibitor]: 0, 2.1 PPM IN DIET BEGINNING 1 WK PRIOR TO CARCINOGEN DOSE AND CONTINUED FOR DURATION OF STUDY (STUDY DURATION: LIFETIME, Species: RAT, Strain/Sex: F344/FEMALE, Target Tissue: Type of Lesion: ESOPHAGUS: TUMORS, Dose [Carcinogen]: 20 ML OF A 5 MG/L SOLUTION IN DRINKING WATER 5 D/WK FOR 28 WK, Promoter: NONE USED) 17/20 (85%), 18/20 (90%), -6%, not significant; (Carcinogen: NONE USED, Dose [Inhibitor]: 0.5 PPM IN DIET DAILY STARTING AT AGE 6 WK AND CONTINUING FOR DURATION OF STUDY (STUDY DURATION: 13 MO), Species: MOUSE, Strain/Sex: BALB/FEMALE, Target Tissue: Type of Lesion: MAMMARY GLAND: ADENOCARCINOMA, Promoter: NONE USED) 15/30 (50%), 8/30 (27%), 46%, p<0.05. The “tumour outcome (control, treated, inhibition, significance)” value (Carcinogen: NONE USED, Dose [Inhibitor]: 2 PPM IN DIET DAILY STARTING AT AGE 6 WK AND CONTINUING FOR DURATION OF STUDY (STUDY DURATION: 13 MO), Species: MOUSE, Strain/Sex: BALB/FEMALE, Target Tissue: Type of Lesion: MAMMARY GLAND: ADENOCARCINOMA, Promoter: NONE USED) was 15/30 (50%), 6/30 (20%), 60%, p<0.05; the “tumour outcome (control, treated, inhibition, significance)” value (Dose [Inhibitor]: 0, 3 PPM IN DRINKING WATER AD LIBITUM FOR DURATION OF STUDY (STUDY DURATION: 79 WK), Species: RAT, Strain/Sex: WISTAR/MALE, Target Tissue: Type of Lesion: LIVER: CARCINOMA, Dose [Carcinogen]: 126 UG/WK IN DRINKING WATER FOR 27 WK, Promoter: NONE USED) is listed as 61%, 0%, 100%, not calculated; the “tumour outcome (control, treated, inhibition, significance)” value (Dose [Inhibitor]: 0, 6 PPM IN DRINKING WATER AD LIBITUM FOR DURATION OF STUDY (STUDY DURATION: 79 WK), Species: RAT, Strain/Sex: WISTAR/MALE, Target Tissue: Type of Lesion: LIVER: CARCINOMA, Dose [Carcinogen]: 126 UG/WK IN DRINKING WATER FOR 27 WK, Promoter: NONE USED) is 61%, 0%, 100%, not calculated. The outcome (Carcinogen: UV-B IRRADIATION, Dose [Inhibitor]: 0, 0.5 MG/KG DIET FOR 29 WK BEGINNING 1 WK PRIOR TO CARCINOGEN TREATMENT (STUDY DURATION: 29 WK), Species: MOUSE, Strain/Sex: SKH:HR-1/FEMALE, Target Tissue: Type of Lesion: SKIN: TUMOR, Dose [Carcinogen]: 90 MJ/CM2 3/WK FOR 20 WK, Promoter: NONE USED) is recorded as 29, 17, 41%, p<0.05.
